These are literature values, as cited in patent publication US20220160890A1, “SURVIVAL-TARGETING CHIMERIC (SURTAC) MOLECULES” (Locki Therapeutics Limited, priority 2019, published 2022).

The target of data set [1] is T1, p53 (Homo sapiens, UniProt P04637).
T1 construct: various tumor cells lines expressing wild-type p53

For data set [2], the target named is T1, p53. This is another data set of the same source.
The target in data set [3] is p53-HDM-2 interaction (Homo sapiens, UniProt P04637). The following applies: in vitro and in vivo.
p53-HDM-2 interaction, sequence (P04637 whole entry): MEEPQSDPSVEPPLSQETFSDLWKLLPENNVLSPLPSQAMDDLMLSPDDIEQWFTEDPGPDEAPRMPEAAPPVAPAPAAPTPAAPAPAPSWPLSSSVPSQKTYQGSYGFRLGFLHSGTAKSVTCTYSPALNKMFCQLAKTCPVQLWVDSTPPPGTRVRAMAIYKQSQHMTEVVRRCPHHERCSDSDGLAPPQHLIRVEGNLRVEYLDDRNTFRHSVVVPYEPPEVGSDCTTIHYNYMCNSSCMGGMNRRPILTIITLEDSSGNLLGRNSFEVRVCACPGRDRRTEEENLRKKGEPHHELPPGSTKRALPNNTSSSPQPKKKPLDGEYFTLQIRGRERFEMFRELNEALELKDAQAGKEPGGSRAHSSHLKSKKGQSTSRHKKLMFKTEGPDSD
The subject of data set [4] is tumor cells lines expressing wild-type p53. The following applies: tumor cell lines expressing wild-type p53.

T1 sequence (P04637 whole entry): as above

For the molecule `OCc1ccc(-c2ccc(-c3ccc(CO)s3)o2)s1` [RITA, 2,5-bis(5-hydroxymethyl-2-thienyl)furan], the “binding to p53” value in data set [1] was “binds to p53”. Besides, in data set [2], the “accumulation of p53 in tumor cells” value is listed as “induces its accumulation in tumor cells”. Further, the p53-HDM-2 interaction entry in data set [3] is “prevents p53-HDM-2 interaction”. Further, in data set [4], the apoptosis result is on record as “massive apoptosis” and the “expression of p53 target genes” value is given as “induced expression of p53 target genes”.
